From patent US9090776B2, “Squarylium dyes” (Exciton, Inc., priority 2012, dated 2015)

Experiment: Solubility of squarylium dye in dichloromethane
Type: physicochemical
Description: Subsequent conversion to the squarylium dye can yield desirable photophysical, solubility, thermal stability, and/or light stability properties. For example, as shown in the FIGURE, the ortho-, ortho- isomer of compound IV has a solubility of about 0.2 gm/L in dichloromethane, CH2Cl2. In comparison, the corresponding meta-, meta- and para-, para- isomers of compound have solubilities of about 0.6 gm/L and about 0.5 gm/L in CH2Cl2, respectively.

For `CC1N(Cc2cccc(NC(=O)c3ccccc3)c2)c2cc(NC(=O)c3ccccc3)c(C3=C([O-])/C(=c4/cc5c(cc4NC(=O)c4ccccc4)=[N+](Cc4cccc(NC(=O)c6ccccc6)c4)C(C)C5(C)C)C3=O)cc2C1(C)C` (stereo not drawn) [meta-, meta- isomer of compound IV], the “solubility in dichloromethane, CH2Cl2” value was “about 0.6 gm/L”.
